From paper PMC9252919, “Controlled masking and targeted release of redox-cycling ortho-quinones via a C–C bond-cleaving 1,6-elimination” (Nature Chemistry, 2022)
Where two headings read alike, the source gives them in different places.

Assays:
[1] = Penicillin-G-amidase-mediated kinetic analysis of elimination at physiological pH (HPLC); format: physicochemical; conditions: pH 7.4, 37 °C
Method: Stocks of 2-phenylacetyl-para-aminobenzyl ketol were made up in DMF at a concentration of 10 mM. For a reaction, 17.5 µl of ketol stock was added to 17.5 µl of a 10 mM stock of internal standard in DMF and 310 µl of PBS at pH 7.4. To initiate a reaction, 5 µl of a suspension of penicillin G amidase (PenG, Sigma-Aldrich enzyme 76427, 5–10 U mg^−1) was added. In control samples 5 µl of PBS was added in place of the enzyme. Test and control samples were then incubated at 37 °C with shaking. At the recorded time points, 20 µl aliquots of the reactions were analysed by HPLC (254 nm, ThermoFisher U3000). HPLC column: Phenomenex Kinetex C18, 5 µm, 50 × 4.6 mm, 100 Å; flow, 1 ml min^−1. Gradient and solvent system for assay with 2-phenylacetyl-PAB-PhQ 21: A = H2O, B = acetonitrile, t = 0–1 min 0% B, t = 1–10 min 0–100% B, t = 10–11 min 0% B. Gradient and solvent system for assay with 2-phenylacetyl-PAB-BL 22 and 2-phenylacetyl-PAB-DN 23: A = H2O + 0.1% formic acid, B = acetonitrile + 0.1% formic acid, t = 0–1 min 0% B, t = 1–10 min 0–40% B, t = 10–16 min 40–50% B, t = 16.1 min 100% B, t = 16.1–18 min 100% B, t = 18–20 min 0% B. Peaks were identified by LC–MS analysis and comparison with pure compounds. Values described represent peak area (mAU × min) divided by peak area of internal standard. Recorded values are averages of three independent reactions and error bars display standard errors of the mean. Fitting was performed using GraphPad Prism 8 software. Rate and half-life measurements were calculated by consumption of intermediate para-aminobenzyl ketol and formation of product quinone.

[2] = 1H NMR kinetic analysis of elimination of PAB-PhQ in MeOD; format: physicochemical
Method: Kinetics of the release of PhQ 4 from PAB-PhQ 7 were monitored by ^1H NMR at 25 °C. Analysis was performed in MeOD due to poor solubility of the compound in H2O. To form the active eliminating species, Boc-PAB-PhQ 6 was dissolved in dichloromethane/trifluoroacetic acid 4:1 at 0 °C and stirred for 30 min, upon which the reaction appeared complete by TLC. Product 7 was dried in vacuo before being dissolved in MeOD. The basicity of the solution was altered by addition of triethylamine (drops). pH was estimated using pH paper. pH values are only indicative because analysis is performed in MeOD. Elimination rates were determined from the aromatic region. Kinetics were measured by monitoring the integral of one peak, normalized to the number of protons present (that is, the integral of 1H), divided by the total integral of the aromatic region (δ = 6.2–8.6 ppm, that is, the integral of 12 H). Analysis was performed using Mestrenova v.14.2.0 processing software and rate constants were calculated using GraphPad Prism v.8.0 software.

[3] = pH-rate aqueous kinetic analysis of fragmentation (HPLC); format: physicochemical; conditions: for kobs of elimination at pH 6: pH 6, 37 °C; for kobs of elimination at pH 6 / kobs of elimination at pH 3: citrate-phosphate buffer; for kobs of elimination at pH 3: pH 3, 37 °C
Method: pH-rate analysis was performed by adaption of the PenG assay. To obtain deprotected para-aminobenzyl ketol species, 2-phenylacetyl protected ketol was dissolved in PBS with 33% DMF to a concentration of 3.3 mM. Then 20 µl of a stock solution of PenG was added to 600 µl of this stock and incubated for 20 min at 37 °C, after which 20 µl of a 100 mM stock of internal standard in DMSO was added. Reactions were then set up immediately. For a reaction, 10 µl of the aminobenzyl ketol/standard stock was added to 190 µl of citrate–phosphate buffer at the specified pH to obtain an aqueous solution containing 1.8% DMSO. Test samples were incubated at 37 °C with shaking. At the recorded time points, 20 µl aliquots of the reactions were analysed by HPLC (254 nm, ThermoFisher U3000). HPLC conditions: column Phenomenex Kinetex C18 5 µm, 50 × 4.6 mm, 100 Å; solvent system A = H2O + 0.1% formic acid, B = acetonitrile + 0.1% formic acid; flow, 1 ml min^−1. Gradient for assay with PAB-PhQ 7: t = 0–1 min 0% B, t = 1–10 min 0–100% B, t = 10–11 min 0% B. Gradient for assay with PAB-BL 10 and PAB-DN 18: t = 0–1 min 0% B, t = 1–10 min 0–40% B, t = 10–16 min 40–50% B, t = 16.1 min 100% B, t = 16.1–18 min 100% B, t = 18–20 min 0% B. Values described represent peak area (mAU × min) divided by peak area of internal standard. Where necessary, peaks were deconvoluted using Origin fitting software. Recorded values are averages of three independent reactions and error bars display standard errors of the mean. Values were fitted using GraphPad Prism software. Rate and half-life measurements were calculated based on consumption of the para-aminobenzyl ketol species.

[4] = In vitro redox-cycling phenol red/horseradish peroxidase reporter assay; conditions: phenol red/HRP with DTT, up to 25 μM
Method: The in vitro redox-cycling capability of compounds was assessed by phenol red/horseradish peroxidase (HRP) assay by adaption of a previously described protocol. Briefly, stocks were prepared as follows: (1) DTT to a concentration of […] in PBS pH 7.4 buffer; (2) compound stocks in PBS pH 7.4 buffer to 3× the desired concentration by 1,000× dilution of DMSO stocks; (3) a stock of phenol red/HRP detection reagent containing 300 µg ml^−1 phenol red and 180 µg ml^−1 HRP enzyme in PBS pH 7.4 buffer; (4) a stock of 1 M NaOH in water; (5) a stock of 100 µM H2O2 in PBS prepared by addition of a 30% solution of H2O2 in water into 1,000 µl of PBS. Into each well of a 96-well clear flat-bottomed plate was then added 40 µl of compound stock in PBS followed by 40 µl of DTT stock, followed immediately by 40 µl of phenol red/HRP reagent. A positive control with 100 µM H2O2 added in place of compound was included. The plate was incubated in the dark at room temperature for 15 min. Following this, 20 µl of 1 M NaOH was added to each well to terminate the reaction. Absorbance was immediately measured at 610 nm (MiniMax i3x Imager, Molecular Devices). Absorbance of treated wells was normalized to control wells treated with PBS only (zero redox cycling).

recombinant human 5-LO = molecular target: T1, recombinant human 5-LO (Homo sapiens, UniProt P09917); assay: Cell-free activity assay for recombinant human 5-LO; format: biochemical
T1 construct: made in house; host or cells: Escherichia coli BL21
T1 sequence (P09917 1-674): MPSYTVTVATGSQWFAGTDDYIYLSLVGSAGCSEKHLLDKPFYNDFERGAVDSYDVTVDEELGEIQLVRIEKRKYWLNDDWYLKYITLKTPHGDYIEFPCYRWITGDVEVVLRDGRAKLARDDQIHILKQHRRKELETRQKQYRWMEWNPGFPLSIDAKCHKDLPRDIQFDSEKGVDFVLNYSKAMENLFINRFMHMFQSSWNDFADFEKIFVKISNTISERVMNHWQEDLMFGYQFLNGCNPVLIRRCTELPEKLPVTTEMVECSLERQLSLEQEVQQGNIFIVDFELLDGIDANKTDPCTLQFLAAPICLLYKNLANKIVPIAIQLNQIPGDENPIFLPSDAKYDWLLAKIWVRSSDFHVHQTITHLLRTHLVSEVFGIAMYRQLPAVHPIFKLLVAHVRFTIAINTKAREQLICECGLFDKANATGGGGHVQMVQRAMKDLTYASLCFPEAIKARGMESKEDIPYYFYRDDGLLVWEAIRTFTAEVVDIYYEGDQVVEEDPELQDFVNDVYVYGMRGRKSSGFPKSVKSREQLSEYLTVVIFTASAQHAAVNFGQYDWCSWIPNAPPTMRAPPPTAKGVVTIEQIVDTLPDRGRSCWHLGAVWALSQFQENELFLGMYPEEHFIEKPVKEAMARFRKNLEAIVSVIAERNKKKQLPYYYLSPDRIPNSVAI
Method: Escherichia coli (BL21) was transformed with pT3-5-LO plasmid, and recombinant 5-LO protein was expressed at 30 °C as described. Cells were lysed in 50 mM triethanolamine/HCl pH 8.0, 5 mM EDTA, 1 mM phenylmethanesulfonyl fluoride, soybean trypsin inhibitor (60 μg ml^−1) and lysozyme (1 mg ml^−1), homogenized by sonication (3 × 15 s) and centrifuged at 40,000g for 20 min at 4 °C. The 40,000g supernatant (S40) was applied to an ATP–agarose column to partially purify 5-LO as described. Aliquots of semipurified 5-LO (0.5 μg) were diluted with 1 ml ice-cold PBS containing 1 mM EDTA. Samples were preincubated with the test compound or vehicle (0.1% DMSO) with or without 1 mM DTT, as indicated. After 10 min at 4 °C, samples were prewarmed for 30 s at 37 °C, and 2 mM CaCl2 plus 20 μM arachidonic acid was added to start the formation of 5-LO products. After 10 min, the reaction was stopped by addition of 1 volume of ice-cold methanol, and the formed 5-LO products were analysed by reverse-phase HPLC as described. 5-LO products include the all-trans isomers of LTB4 (trLTB4 isomers) and 5(S)-hydroperoxy-6-trans-8,11,14-cis-eicosatetraenoic acid and its corresponding alcohol 5(S)-hydroxy-6-trans-8,11,14-cis-eicosatetraenoic acid.

ovine blood = assay: Methaemoglobin analysis in ovine blood; parameters: species or system sheep; conditions: in vitro ovine blood model, 1 h incubation
Method: Defibrinated Oxoid sheep’s blood (ThermoScientific) was diluted to a 5% v/v suspension in PBS pH 7.4. In a 96-well microtitre plate, 150 µl of blood suspension was added to 50 µl of serially diluted compound in PBS containing a 4× stock of each compound of interest. Serial dilution of compounds from DMSO stocks into PBS was performed to achieve an in-plate DMSO concentration of 0.1%. PBS buffer alone was used as a negative control. The plate was incubated for the specified time at 37 °C. The plate was then centrifuged at 3,500 r.p.m. for 5 min. The supernatant was removed and cells lysed by resuspension in 100 µl of a solution of Triton-X-100 (1%) in PBS. Following this, 80 µl of lysed cell contents were transferred to a second microtitre plate for ultraviolet measurement. Ultraviolet absorbance was measured immediately at 630 nm (MiniMax i3x Imager, Molecular Devices). Methaemoglobin increase was determined by A630−A6300/A6300×100 , where A630 is the absorbance of the test well at 630 nm, and A6300 is the absorbance of the negative control at 630 nm.

AML cell line MOLM-13 = assay: Viability assay with small-molecule prodrugs, MOLM-13; format: cell-based; conditions: 5 µM, 24 h
Method: For assays assessing cytotoxicity of β-lapachone versus small-molecule prodrugs, antibodies and ADCs, suspension cells were plated into 24-well plates at a density of 2.5 × 10^5 cells ml^−1 in 240 µl. Stocks of ADC or antibody in PBS were normalized to 12.5 µM. Serial dilutions of compound were made up in PBS. Then, 60 µl of each stock of either PBS or compound in PBS was added to the cells to achieve the desired final concentration. After the specified incubation time, toxicity was assessed by counting of live cells using the trypan blue exclusion method with a Countess II Automated Cell Counter (ThermoFisher Scientific) according to the manufacturer’s instructions. Cell viability was determined by dividing the average live cell number of treated wells by the average live cell number for control wells treated with PBS only. IC50 values were calculated using GraphPad Prism software. Note: for the assay performed over 96 h, 5% human serum was added to media instead of 10% fetal bovine serum, to limit non-specific antibody internalisation. This had little effect on ADC toxicity.

[5] = 25 °C, moderately acidic methanolic solution

2-phenylacetyl-PAB-PhQ [Compound 21]
kobs, formation of PhQ 4 following addition of penicillin G amidase to 21 [1]: 1.15 ± 0.66 × 10^–5 s^–1
stability without added enzyme ([1]; no penicillin G amidase): stable

Nc1ccc(CC2(O)C(=O)c3ccccc3-c3ccccc32)cc1 (stereo not drawn) [Compound 7, para-aminobenzyl phenanthrene-ketol]
kobs, rate of consumption of 7 [2, 5]: 6.18 ± 0.12 × 10^–5 s^–1
kobs, rate of formation of product 4 from 7 [2, 5]: 6.55 ± 0.22 × 10^–5 s^–1
time to complete release of 4 from 7 [2, 5]: ≤ 20 h
completeness of release of 4 from 7 ([2]; basic conditions): not complete after 40 h
kobs, appearance of 4 from 7 ([2]; basic conditions, MeOD with triethylamine): 1.16 ± 0.18 × 10^–6 s^–1
kobs, elimination of 7 ([1]; 7 generated enzymatically from 21): 9.72 ± 2.88 × 10^–6 s^–1
pH at which elimination rate peaks ([3]; 37 °C): 5–6
kobs of elimination at pH 6 [3]: 1.7 ± 0.3 × 10^–5 s^–1

CC1(C)CCC2=C(O1)c1ccccc1C(O)(Cc1ccc(N)cc1)C2=O (stereo not drawn) [Compound 10]
pH at which elimination rate peaks ([3]; 37 °C): 3
kobs of elimination at pH 3 [3]: 1.1 ± 0.1 × 10^–5 s^–1
kobs of elimination at pH 6 [3]: 2.1 ± 0.8 × 10^–7 s^–1
elimination resulting in formation of 1 ([3]; pH ≥6, within 72 h, 37 °C): Negligible

CC1OC2=C(C(=O)C(O)(Cc3ccc(N)cc3)c3ccccc32)C1(C)C (stereo not drawn) [Compound 18]
kobs of elimination at pH 3 [3]: 9.1 ± 0.2 × 10^–6 s^–1
kobs of elimination at pH 6 [3]: 7.4 ± 1.1 × 10^–7 s^–1

CC1(C)CCc2c3c(c4ccccc4c2O1)OCCO3 [Compound 25]
in vitro redox activity [4]: no measurable redox activity
IC50 (recombinant human 5-LO; with DTT (1 mM), read-out: IC50, 5-LO inhibition with DTT): 11.5 ± 2.2 µM
IC50 (recombinant human 5-LO; without DTT, read-out: IC50, 5-LO inhibition without DTT): 11.3 ± 1.1 µM
methaemoglobin formation (ovine blood): did not occur

CC(=O)Oc1c2c(c3ccccc3c1OC(C)=O)OC(C)(C)CC2 [Compound 29]
toxicity to MOLM-13 at 5 µM (AML cell line MOLM-13): complete cell death
